Measured values reported in patent US10233173B2, “Substituted 1,2,3-triazoles as NR2B-selective NMDA modulators” (JANSSEN PHARMACEUTICA NV, priority 2016, dated 2019).

These compounds were tested against human GluN1/GluN2B NMDA receptors (Homo sapiens, UniProt Q05586+Q13224) (assay: Cell-based calcium flux (FLIPR) assay on cloned human NR1/NR2B ion channels expressed in mammalian cells). Conditions: standard assay; glutamate at ~EC80; FLIPR calcium flux.
Summary of the method: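 Calcium influx followed by FLIPR fluorescence after 5 min compound exposure and a further 5 min co-agonist challenge: 10 μM glycine with glutamate at ~EC80 (standard) or EC40 (HTS).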

Chain of human GluN1/GluN2B NMDA receptors (Q13224 27-1484, other chains not shown): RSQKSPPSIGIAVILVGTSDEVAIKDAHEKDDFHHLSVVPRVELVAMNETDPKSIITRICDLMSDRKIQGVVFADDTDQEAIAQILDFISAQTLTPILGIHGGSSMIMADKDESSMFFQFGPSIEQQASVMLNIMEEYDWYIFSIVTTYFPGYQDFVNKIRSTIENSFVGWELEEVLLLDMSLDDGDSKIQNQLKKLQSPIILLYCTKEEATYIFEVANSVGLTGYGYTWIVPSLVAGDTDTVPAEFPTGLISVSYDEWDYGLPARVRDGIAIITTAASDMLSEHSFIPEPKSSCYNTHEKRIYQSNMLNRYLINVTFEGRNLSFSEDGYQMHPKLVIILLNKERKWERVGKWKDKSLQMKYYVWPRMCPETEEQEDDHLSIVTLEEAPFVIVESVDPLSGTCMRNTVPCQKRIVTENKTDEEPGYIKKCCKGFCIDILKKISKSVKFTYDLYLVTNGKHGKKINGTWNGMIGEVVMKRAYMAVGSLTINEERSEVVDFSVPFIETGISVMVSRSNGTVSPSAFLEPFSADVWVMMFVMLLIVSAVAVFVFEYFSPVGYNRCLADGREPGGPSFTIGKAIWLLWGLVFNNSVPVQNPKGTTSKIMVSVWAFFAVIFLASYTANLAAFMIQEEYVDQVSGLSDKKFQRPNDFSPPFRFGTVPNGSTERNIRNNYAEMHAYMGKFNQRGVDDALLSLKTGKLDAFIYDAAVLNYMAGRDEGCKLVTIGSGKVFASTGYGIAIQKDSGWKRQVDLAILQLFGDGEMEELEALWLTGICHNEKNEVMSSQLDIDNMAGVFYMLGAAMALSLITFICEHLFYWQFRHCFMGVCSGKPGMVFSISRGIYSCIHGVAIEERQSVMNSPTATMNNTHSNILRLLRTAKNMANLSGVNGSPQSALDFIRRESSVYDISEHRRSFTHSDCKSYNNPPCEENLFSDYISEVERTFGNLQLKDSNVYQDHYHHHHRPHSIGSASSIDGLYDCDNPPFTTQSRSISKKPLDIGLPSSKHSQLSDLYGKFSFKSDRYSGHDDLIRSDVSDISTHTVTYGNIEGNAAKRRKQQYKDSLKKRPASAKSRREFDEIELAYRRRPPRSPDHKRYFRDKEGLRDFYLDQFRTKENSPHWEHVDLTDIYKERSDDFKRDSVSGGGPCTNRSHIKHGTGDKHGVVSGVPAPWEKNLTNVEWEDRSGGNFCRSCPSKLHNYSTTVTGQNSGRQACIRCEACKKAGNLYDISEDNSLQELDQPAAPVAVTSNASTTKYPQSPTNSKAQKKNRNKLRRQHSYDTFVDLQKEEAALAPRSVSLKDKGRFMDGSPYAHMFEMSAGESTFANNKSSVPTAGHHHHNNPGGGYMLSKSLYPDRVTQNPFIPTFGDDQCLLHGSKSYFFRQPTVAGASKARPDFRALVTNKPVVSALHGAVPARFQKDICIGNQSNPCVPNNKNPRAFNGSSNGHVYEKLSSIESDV

`Fc1ccc(-n2cc(COc3nccc(-c4ccco4)n3)nn2)cc1C(F)F` [Example 424, 2-[[1-[3-(Difluoromethyl)-4-fluoro-phenyl]triazol-4-yl]methoxy]-4-(2-furyl)pyrimidine] and `Fc1ccc(-n2cc(COc3nccc(C(F)F)n3)nn2)cc1C(F)(F)F` [Example 440, 4-(Difluoromethyl)-2-[[1-[4-fluoro-3-(trifluoromethyl)phenyl]triazol-4-yl]methoxy]pyrimidine] are within 1.5-fold of each other in IC50: 0.141 µM for the first, 0.098 µM for the second.

Compared with `Cc1cnc(OCc2nnn(-c3ccc(F)c(C(F)F)c3)c2I)nc1` [Example 425, 2-[[1-[3-(Difluoromethyl)-4-fluoro-phenyl]-5-iodo-triazol-4-yl]methoxy]-5-methyl-pyrimidine], `Fc1ccc(-n2cc(COc3ncc(C(F)F)cn3)nn2)cc1C(F)(F)F` [Example 439, 5-(Difluoromethyl)-2-[[1-[4-fluoro-3-(trifluoromethyl)phenyl]triazol-4-yl]methoxy]pyrimidine] is 30-fold lower in IC50: 0.394 µM for the first, 0.013 µM for the second. The second is the more potent here.

`Fc1ccc(-n2cc(COc3ncccc3F)nn2)cc1C(F)(F)F` [Example 427, 3-Fluoro-2-[[1-[4-fluoro-3-(trifluoromethyl)phenyl]triazol-4-yl]methoxy]pyridine] and `Fc1ccc(-n2cc(COc3ccc(Cl)cn3)nn2)cc1C(F)(F)F` [Example 428, 5-Chloro-2-[[1-[4-fluoro-3-(trifluoromethyl)phenyl]triazol-4-yl]methoxy]pyridine] are within 1.5-fold of each other in IC50: 0.897 µM for the first, 0.796 µM for the second.

Going from `Cc1ccnc(OCc2cn(-c3ccc(F)c(C(F)(F)F)c3)nn2)c1` [Example 429, 2-[[1-[4-Fluoro-3-(trifluoromethyl)phenyl]triazol-4-yl]methoxy]-4-methyl-pyridine] to `Cc1ccc(OCc2cn(-c3ccc(F)c(C(F)(F)F)c3)nn2)nc1` [Example 431, 2-[[1-[4-Fluoro-3-(trifluoromethyl)phenyl]triazol-4-yl]methoxy]-5-methyl-pyridine], the IC50 falls from 0.665 µM to 0.101 µM (6.6-fold).

Compared with `Cc1cccc(OCc2cn(-c3ccc(F)c(C(F)(F)F)c3)nn2)n1` [Example 430, 2-[[1-[4-Fluoro-3-(trifluoromethyl)phenyl]triazol-4-yl]methoxy]-6-methyl-pyridine], `CC(C)(O)c1ccc(OCc2cn(-c3ccc(F)c(C(F)(F)F)c3)nn2)nc1` [Example 433, 2-[6-[[1-[4-Fluoro-3-(trifluoromethyl)phenyl]triazol-4-yl]methoxy]-3-pyridyl]propan-2-ol] is 10-fold higher in IC50: 0.11 µM for the first, 1.11 µM for the second.

First: Fc1ccc(-n2cc(COc3ccc(C(F)(F)F)cn3)nn2)cc1C(F)(F)F [Example 432, 2-[[1-[4-Fluoro-3-(trifluoromethyl)phenyl]triazol-4-yl]methoxy]-5-(trifluoromethyl)pyridine]
Second: Fc1ccc(-n2cc(COc3cnccn3)nn2)cc1C(F)(F)F [Example 434, 2-[[1-[4-Fluoro-3-(trifluoromethyl)phenyl]triazol-4-yl]methoxy]pyrazine]
The IC50 of the first is 12-fold lower: 0.528 µM for the first, 6.39 µM for the second.

First: CC(C)(O)c1cnc(OCc2cn(-c3ccc(F)c(C(F)(F)F)c3)nn2)nc1 [Example 435, 2-[2-[[1-[4-Fluoro-3-(trifluoromethyl)phenyl]triazol-4-yl]methoxy]pyrimidin-5-yl]propan-2-ol]
Second: COC(C)(C)c1cnc(OCc2cn(-c3ccc(F)c(C(F)(F)F)c3)nn2)nc1 [Example 436, 2-[[1-[4-Fluoro-3-(trifluoromethyl)phenyl]triazol-4-yl]methoxy]-5-(1-methoxy-1-methyl-ethyl)pyrimidine]
The IC50 of the first is 33-fold lower: 0.098 µM for the first, 3.26 µM for the second. The first is the more potent here.

Compared with `COCc1cnc(OCc2cn(-c3ccc(F)c(C(F)(F)F)c3)nn2)nc1` [Example 437, 2-[[1-[4-Fluoro-3-(trifluoromethyl)phenyl]triazol-4-yl]methoxy]-5-(methoxymethyl)pyrimidine], `CCOc1cnc(OCc2cn(-c3ccc(F)c(C(F)(F)F)c3)nn2)nc1` [Example 443, 5-Ethoxy-2-[[1-[4-fluoro-3-(trifluoromethyl)phenyl]triazol-4-yl]methoxy]pyrimidine] is 18-fold lower in IC50: 0.071 µM for the first, 0.004 µM for the second. The second is the more potent here.

`COCc1ccnc(OCc2cn(-c3ccc(F)c(C(F)(F)F)c3)nn2)n1` [Example 438, 2-[[1-[4-Fluoro-3-(trifluoromethyl)phenyl]triazol-4-yl]methoxy]-4-(methoxymethyl)pyrimidine] and `COc1ccnc(OCc2cn(-c3ccc(F)c(C(F)(F)F)c3)nn2)n1` [Example 442, 2-[[1-[4-Fluoro-3-(trifluoromethyl)phenyl]triazol-4-yl]methoxy]-4-methoxy-pyrimidine] are within 1.5-fold of each other in IC50: 0.094 µM for the first, 0.072 µM for the second.

First: Cc1nc(OCc2cn(-c3ccc(F)c(C(F)(F)F)c3)nn2)ncc1Cl [Example 444, 5-Chloro-2-[[1-[4-fluoro-3-(trifluoromethyl)phenyl]triazol-4-yl]methoxy]-4-methyl-pyrimidine]
Second: Cc1nc(OCc2cn(-c3ccc(F)c(C(F)(F)F)c3)nn2)ncc1F [Example 445, 5-Fluoro-2-[[1-[4-fluoro-3-(trifluoromethyl)phenyl]triazol-4-yl]methoxy]-4-methyl-pyrimidine]
The IC50 of the first is 2.2-fold higher: 0.013 µM for the first, 0.006 µM for the second. The second is the more potent here.

Going from `CC(=O)c1cnc(OCc2cn(-c3ccc(F)c(C(F)(F)F)c3)nn2)nc1` [Example 447, 1-[2-[[1-[4-Fluoro-3-(trifluoromethyl)phenyl]triazol-4-yl]methoxy]pyrimidin-5-yl]ethanone] to `CNC(=O)c1cnc(OCc2cn(-c3ccc(F)c(C(F)(F)F)c3)nn2)nc1` [Example 452, 2-[[1-[4-Fluoro-3-(trifluoromethyl)phenyl]triazol-4-yl]methoxy]-N-methyl-pyrimidine-5-carboxamide], the IC50 rises from 0.014 µM to 0.218 µM (16-fold).

`CNc1ccnc(OCc2cn(-c3ccc(F)c(C(F)(F)F)c3)nn2)n1` [Example 449, 2-[[1-[4-Fluoro-3-(trifluoromethyl)phenyl]triazol-4-yl]methoxy]-N-methyl-pyrimidin-4-amine] and `CN(C)c1ccnc(OCc2cn(-c3ccc(F)c(C(F)(F)F)c3)nn2)n1` [Example 450, 2-[[1-[4-Fluoro-3-(trifluoromethyl)phenyl]triazol-4-yl]methoxy]-N,N-dimethyl-pyrimidin-4-amine] are within 1.5-fold of each other in IC50: 0.034 µM for the first, 0.03 µM for the second.

`CNc1nc(OCc2cn(-c3ccc(F)c(C(F)(F)F)c3)nn2)ncc1F` [Example 451, 5-Fluoro-2-[[1-[4-fluoro-3-(trifluoromethyl)phenyl]triazol-4-yl]methoxy]-N-methyl-pyrimidin-4-amine] and `CCNc1cnc(OCc2cn(-c3ccc(F)c(C(F)(F)F)c3)nn2)nc1C` [Example 458, 2-((1-(3-(Trifluoromethyl)-4-fluorophenyl)-1H-1,2,3-triazol-4-yl)methoxy)-N-ethyl-4-methylpyrimidin-5-amine] are within 1.5-fold of each other in IC50: 0.298 µM for the first, 0.439 µM for the second.

First: Fc1ccc(-n2cc(COc3ncc(C4CC4)cn3)nn2)cc1C(F)(F)F [Example 453, 5-Cyclopropyl-2-[[1-[4-fluoro-3-(trifluoromethyl)phenyl]triazol-4-yl]methoxy]pyrimidine]
Second: Fc1ccc(-n2cc(COc3ncc(Br)cn3)nn2)cc1C(F)(F)F [Example 454, 5-Bromo-2-((1-(4-fluoro-3-(trifluoromethyl)phenyl)-1H-1,2,3-triazol-4-yl)methoxy)pyrimidine]
The IC50 of the first is 1.7-fold higher: 0.022 µM for the first, 0.013 µM for the second. The second is the more potent here.

Going from `Fc1ccc(-n2cc(COc3ncc(N4CC(F)C4)cn3)nn2)cc1C(F)(F)F` [Example 455, 2-((1-(4-Fluoro-3-(trifluoromethyl)phenyl)-1H-1,2,3-triazol-4-yl)methoxy)-5-(3-fluoroazetidin-1-yl)pyrimidine] to `COC1CN(c2cnc(OCc3cn(-c4ccc(F)c(C(F)(F)F)c4)nn3)nc2)C1` [Example 460, 2-((1-(3-(Trifluoromethyl)-4-fluorophenyl)-1H-1,2,3-triazol-4-yl)methoxy)-5-(3-methoxyazetidin-1-yl)pyrimidine], the IC50 rises from 0.034 µM to 0.726 µM (21-fold). The first is the more potent here.

First: Fc1ccc(-n2cc(COc3ncc(N4CCOCC4)cn3)nn2)cc1C(F)(F)F [Example 456, 4-(2-((1-(4-Fluoro-3-(trifluoromethyl)phenyl)-1H-1,2,3-triazol-4-yl)methoxy)pyrimidin-5-yl)morpholine]
Second: CCNc1cnc(OCc2cn(-c3ccc(F)c(C(F)(F)F)c3)nn2)nc1 [Example 459, 2-((1-(3-(Trifluoromethyl)-4-fluorophenyl)-1H-1,2,3-triazol-4-yl)methoxy)-N-ethylpyrimidin-5-amine]
The IC50 of the first is 4-fold higher: 0.5 µM for the first, 0.126 µM for the second.

Compared with `Cc1nc(OCc2cn(-c3ccc(F)c(C(F)(F)F)c3)nn2)ncc1N1CCC1` [Example 457, 5-(Azetidin-1-yl)-2-((1-(3-(trifluoromethyl)-4-fluorophenyl)-1H-1,2,3-triazol-4-yl)methoxy)-4-methylpyrimidine], `Fc1c(-n2cc(COc3ncc(Cl)cn3)nn2)cccc1C(F)(F)F` [Example 461, 5-Chloro-2-[[1-[2-fluoro-3-(trifluoromethyl)phenyl]triazol-4-yl]methoxy]pyrimidine] is 4.2-fold lower in IC50: 0.296 µM for the first, 0.07 µM for the second. The second is the more potent here.

Going from `Cc1cc(OCc2cn(-c3ccc(F)c(C)c3)nn2)ncn1` [Example 462, 4-[[1-(4-Fluoro-3-methyl-phenyl)triazol-4-yl]methoxy]-6-methyl-pyrimidine] to `Cc1cnc(OCc2cn(-c3cccc(F)c3C)nn2)nc1` [Example 464, 2-[[1-(3-Fluoro-2-methyl-phenyl)triazol-4-yl]methoxy]-5-methyl-pyrimidine], the IC50 falls from 3.03 µM to 0.515 µM (5.9-fold).

First: Cc1c(F)cccc1-n1cc(COc2ncc(Cl)cn2)nn1 [Example 463, 5-Chloro-2-[[1-(3-fluoro-2-methyl-phenyl)triazol-4-yl]methoxy]pyrimidine]
Second: Cc1c(F)cccc1-n1cc(COc2ncc(C(C)(C)O)cn2)nn1 [Example 466, 2-[2-[[1-(3-Fluoro-2-methyl-phenyl)triazol-4-yl]methoxy]pyrimidin-5-yl]propan-2-ol]
The IC50 of the first is 11-fold lower: 0.647 µM for the first, 7.01 µM for the second. The first is the more potent here.

First: Cc1nc(OCc2cn(-c3cccc(F)c3C)nn2)ncc1F [Example 465, 5-Fluoro-2-[[1-(3-fluoro-2-methyl-phenyl)triazol-4-yl]methoxy]-4-methyl-pyrimidine]
Second: Cc1cnc(OCc2cn(-c3cccc(C)c3F)nn2)nc1 [Example 467, 2-[[1-(2-Fluoro-3-methyl-phenyl)triazol-4-yl]methoxy]-5-methyl-pyrimidine]
The IC50 of the first is 5.2-fold higher: 3.72 µM for the first, 0.711 µM for the second. The second is the more potent here.
